Where a name gives a salt, the structure may show the parent alone.
What was measured:
[1] = system: FCA-induced thermal hyperalgesia; assay: FCA model of inflammatory pain, thermal hyperalgesia (PWL, plantar test); assay type: in vivo; details: rat
Description: (§1) Each experiment used rats weighing between 200-260 g at the start of the experiment. The rats were group-housed and had free access to food and water at all times, except prior to oral administration of a Substituted-Quinoxaline-Type Bridged-Piperidine Compound when food was removed for 16 hours before dosing. A control group acted as a comparison to rats treated with a Substituted-Quinoxaline-Type Bridged-Piperidine Compound. The control group was administered the carrier for the Substituted-Quinoxaline-Type Bridged-Piperidine Compound. The volume of carrier administered to the control group was the same as the volume of carrier and Substituted-Quinoxaline-Type Bridged-Piperidine Compound administered to the test group.
To assess the actions of a Substituted-Quinoxaline-Type Bridged-Piperidine Compound for the treatment or prevention of inflammatory pain, the Freund's complete adjuvant (“FCA”) model of inflammatory pain was used. […] The left hind paw of each animal was administered a 50 μL intraplantar injection of 50% FCA. 24 hour post injection, the animal was assessed for response to noxious mechanical stimuli by determining the PWT, or to noxious thermal stimuli by determining the PWL, as described below. […] Responses to noxious mechanical stimuli were then determined 1, 3, 5 and 24 hours post administration. Percentage reversal of hyperalgesia for each animal was defined as: […]
The plantar test can be used to assess thermal hyperalgesia. For this test, hind paw withdrawal latencies (PWL) to a noxious thermal stimulus were determined using a plantar test apparatus (commercially available from Ugo Basile of Italy) following the technique described by K. Hargreaves et al., “A New and Sensitive Method for Measuring Thermal Nociception in Cutaneous Hyperalgesia,” Pain 32(1):77-88 (1988). The maximum exposure time was set at 32 seconds to avoid tissue damage and any directed paw withdrawal from the heat source was taken as the end point. Three latencies were determined at each time point and averaged. Either only the affected (ipsilateral) paw was tested, or both the ipsilateral and contralateral (non-injured) paw were tested.

[2] = abnormal behavioral side effects (sedation, hyperactivity, hypoactivity); details: rat, in vivo
[3] = system: nerve injury-induced mechanical hyperalgesia; assay: Seltzer partial sciatic nerve ligation model of neuropathic pain, mechanical hyperalgesia (PWT); assay type: in vivo; details: rat, 3 mg/kg
Description: as §1
Partial ligation of the left sciatic nerve was performed under isoflurane/O2 inhalation anesthesia. Following induction of anesthesia, the left thigh of the rat was shaved and the sciatic nerve exposed at high thigh level through a small incision and was carefully cleared of surrounding connective tissues at a site near the trocanther just distal to the point at which the posterior biceps semitendinosus nerve branches off of the common sciatic nerve. A 7-0 silk suture was inserted into the nerve with a ⅜ curved, reversed-cutting mini-needle and tightly ligated so that the dorsal ⅓ to ½ of the nerve thickness was held within the ligature. The wound was closed with a single muscle suture (4-0 nylon (Vicryl)) and vetbond tissue glue. Following surgery, the wound area was dusted with antibiotic powder. Sham-treated rats underwent an identical surgical procedure except that the sciatic nerve was not manipulated. Following surgery, animals were weighed and placed on a warm pad until they recovered from anesthesia. Animals were then returned to their home cages until behavioral testing began. The animals were assessed for response to noxious mechanical stimuli by determining PWT, as described below, prior to surgery (baseline), then immediately prior to and 1, 3, and 5 hours after drug administration for rear paw of the animal. Percentage reversal of neuropathic hyperalgesia was defined as: […]
The paw pressure assay was used to assess mechanical hyperalgesia. For this assay, hind paw withdrawal thresholds (PWT) to a noxious mechanical stimulus were determined using an analgesymeter (Model 7200, commercially available from Ugo Basile of Italy) as described in C. […] The maximum weight that could be applied to the hind paw was set at 250 g and the end point is taken was complete withdrawal of the paw. PWT was determined once for each rat at each time point and either only the affected (ipsilateral) paw was tested, or both the ipsilateral and contralateral (non-injured) paw were tested.

[4] = biological target: hERG (human ether a-go-go gene) (Homo sapiens (Human), UniProt Q12809); assay: cardiovascular side effects: in vitro hERG assay and APD in guinea pig purkinje fibers
Description: These side effects were determined using known methods: an in vitro hERG (human ether a-go-go gene) assay as disclosed in Z. Zhou et al., “Properties of HERG Channels Stably Expressed in HEK 293 Cells Studied at Physiological Temperature,” Biophysical J. 74:230-241 (1998); and APD (action potential duration) in guinea pig purkinje fibers as disclosed in J. A. Hey, “The Guinea Pig Model for Assessing Cardiotoxic Proclivities of Second Generation Antihistamines,” Arzneimittelforschung 46(8):834-837 (1996).

[5] = 5 mg/kg dose, 1 hour after administration
[6] = 5 mg/kg dose, 3 hours after administration
[7] = 5 mg/kg dose, 5 hours after administration

With `O=C(O)c1nc2ccccc2n([C@H]2C[C@H]3CC[C@@H](C2)N3C2CCCCCCCCCC2)c1=O` [Compound 358, 4-((endo)-8-cycloundecyl-8-azabicyclo[3.2.1]octan-3-yl)-3-oxo-3,4-dihydroquinoxaline-2-carboxylic acid] the “% reversal of thermal hyperalgesia” value [1, 5] was 34%, the “% reversal of thermal hyperalgesia” value [1, 6] was 46% and the “% reversal of thermal hyperalgesia” value [1, 7] was 79%. For the same compound, the “abnormal behavioral side effects, such as sedation, hyperactivity and/or hypoactivity” value (from here on “abnormal behavioral side effects, such”) [2] was “reduced abnormal behavioral side effects”.
For `O=C(O)c1nc2ccccc2n([C@H]2C[C@H]3CC[C@@H](C2)N3[C@H]2C[C@@H]3CCC[C@@H](C3)C2)c1=O` [Compound 361, 4-((endo)-8-((exo)-bicyclo[3.3.1]nonan-3-yl)-8-azabicyclo[3.2.1]octan-3-yl)-3-oxo-3,4-dihydroquinoxaline-2-carboxylic acid], the “% reversal of thermal hyperalgesia” value [1, 5] was 36%, the “% reversal of thermal hyperalgesia” value [1, 6] was 90% and the “% reversal of thermal hyperalgesia” value [1, 7] was 70%. For the same compound, the “abnormal behavioral side effects, such” value [2] was “reduced abnormal behavioral side effects”.
For `O=C(O)c1nc2ccccc2n([C@H]2C[C@H]3CCC[C@@H](C2)N3C2CC3CCCC(C3)C2)c1=O` (stereo partly drawn) [Compound 362, 4-((endo)-9-((exo)-bicyclo[3.3.1]nonan-3-yl)-9-azabicyclo[3.3.1]nonan-3-yl)-3-oxo-3,4-dihydroquinoxaline-2-carboxylic acid], the “% reversal of thermal hyperalgesia” value ([1]; 3 mg/kg dose, 1 hour after administration) was 86%, the “% reversal of thermal hyperalgesia” value ([1]; 3 mg/kg dose, 3 hours after administration) was 51% and the “% reversal of thermal hyperalgesia” value ([1]; 3 mg/kg dose, 5 hours after administration) was 27%. The “ED50 for reversal of thermal hyperalgesia” value (“ED50 for reversal” for short) ([1]; 1 hour after administration) was 0.8 mg/kg, the “ED50 for reversal” value ([1]; 3 hours after administration) was 1.5 mg/kg and the “ED50 for reversal” value ([1]; 5 hours after administration) was 3.0 mg/kg. For the same compound, the “% reversal of mechanical hyperalgesia” value ([3]; 1 hour after administration) was 60%, the “% reversal of mechanical hyperalgesia” value ([3]; 3 hours after administration) was 60% and the “% reversal of mechanical hyperalgesia” value ([3]; 5 hours after administration) was 50%. For the same compound, the “% reversal of mechanical hyperalgesia” value ([3]; 7 hours after administration) was 40%, the “abnormal behavioral side effects, such” value [2] was “reduced abnormal behavioral side effects” and the cardiovascular side effects [4] was “reduced cardiovascular side effects”.
With `C[C@@H]1C[C@@H]2C[C@H](C1)C[C@@H](N1[C@@H]3CCC[C@H]1C[C@@H](n1c(=O)c(C(=O)O)nc4ccccc41)C3)C2` [Compound 405, (exo, endo, endo)-4-(9-(7-methylbicyclo[3.3.1]nonan-3-yl)-9-azabicyclo[3.3.1]nonan-3-yl)-3-oxo-3,4-dihydroquinoxaline-2-carboxylic acid potassium salt] the “% reversal of mechanical hyperalgesia” value ([3]; 1 hour after administration) was 70%, the “% reversal of mechanical hyperalgesia” value ([3]; 3 hours after administration) was 70% and the “% reversal of mechanical hyperalgesia” value ([3]; 5 hours after administration) was 70%.
